Data as given in patent US8759537B2, “3H-imidazo [4, 5-C] pyridine-6-carboxamides as anti-inflammatory agents” (Boehringer Ingelheim International GmbH, priority 2010, dated 2014).

Columns and labels:
mPGES-1 [1] = target: T1, mPGES-1 (Homo sapiens (Human), UniProt O14684); experiment: A549 cell-based assay (PGE2 formation, IL-1β stimulated, 50% human serum); settings: A549 cells
Procedure, shortened: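 Human A549 cells (7000 cells/well) in F-12 medium with 50% human serum, with IL-1β stimulation. IC50 from 6-8 point titrations.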

mPGES-1 [2] = target: T1, mPGES-1; experiment: mPGES-1 enzyme assay (HTRF detection of PGE2); type: biochemical
Method: Microsomes from Rosetta E. coli bacteria expressing recombinant human mPGES-1 can be derived as described below:
Inoculate 5 ml LB with Ampicilin (50 μg/ml) and Chloramphenicol (34 μg/ml) with bacteria from freeze culture. Incubate 8 h at 37° C. with 200 rpm. Thereafter, inoculate 500-1000 ml LB containing Amp and Chloro with the 5 ml on culture and grow to OD640 of 0.8-1.0. Chill the culture to +4° C. before induction. Induce the culture with IPTG at a final concentration of 400 μM. Express the protein at room temp 18-23° C. with 200 rpm shaking over night.
The following steps can be performed on the following day: • 1. Spin down the cells in 250 ml centrifuge flasks for 15 min at 7000 rpm (Beckmann Coulte Avanti J-E centrifuge) • 2. Dissolve the pellet from 250 ml culture in 12.5 ml homogenization buffer • 3. (15 mM Tris-HCL pH8, 1 mM EDTA pH8, […], 2.5 mM GSH, 1 Tablet Protease inhibitor per 50 ml buffer) • 4. […] Add 2.5 ml MgCl2 (100 mM) and DNase 12.5 μl (0.8 mg/ml) and incubate on ice for 30 min • 6. Spin down the bacteria debris and save the supernatant, 7000 rpm for 15 min • 7. Isolate the protein containing membranes in the supernatant by ultracentrifugation 120000×g for 2 hour at 4° C. (Sorvall T880 rotor). • 8. Discard the supernatant and dissolve the pellet in 20 mM Potassium phosphate buffer pH7.4 (KH2PO4 and K2HPO4) buffer by sonication (5×10 s, 30% of a 50 W sonifier) and aliquot the enzyme and store aliquots at −80° C.
Before each experiment is performed an aliquot of the enzyme is thawed and it can then be dissolved in 0.1 M Potassium phosphate buffer pH7.4 (KH2PO4 and K2HPO4) buffer containing 2.5 mM GSH.
The aim of this assay is to determine the affinity of a test compound for the mPGES-1 enzyme.
47 μl of recombinant human mPGES-1 (˜0.5 μg protein/well) containing microsomal suspension in a buffer containing GSH, (2.5 mmol/L L-Glutathione reduced, dissolved in 0.1 mol/L Phosphat Buffer pH 7.4) is dispensed in a 384-well plate and thereafter 1 μl of the test compound(s) is/are added and incubated for 25 minutes at room temperature. The enzyme reaction is started by the addition of 2 ul PGH2 (final conc. 2 μM) dissolved in water-free Diglyme. After 60 seconds the reaction is terminated by addition of a stop solution containing FeCl2 (10 μL 0.074 mol/l FeCl2). The samples are diluted between 1:25 in PBS (Phosphate Buffered Saline). 10 μl of the diluted samples are transferred to 384-well low volume plate. In order to quantify the amount of PGE2 that has been formed, a homogenous time resolved fluorescent (HTRF) detecting of PGE2 has been performed using a commercially available kit from Cisbio according to the manufactures recommendation. […] Briefly, the diluted samples are mixed with 5 μl PGE2-d2 conjungate and 5 μl anti-PGE2 cryptate conjungate. After an incubation period of the plates over night, the fluorescence is measured by the use of an appropriate microplate reader.
The quantification plate contains also wells with different concentrations of PGE2 as calibration curve for the calculation of the PGE2 concentrations from the HTRF ratio values.
From all mPGES enzyme assay the background is subtracted and the IC50 is calculated over a nonlinear regression with conventional software.

[3] = IL-1β 5 ng/ml, read-out: mPGES-1 inhibitory effect in the cell assay, IC50
[4] = recombinant human mPGES-1 microsomes, PGH2 2 μM, read-out: mPGES-1 inhibitory effect in the enzyme assay, IC50

T1 sequence (O14684 whole entry): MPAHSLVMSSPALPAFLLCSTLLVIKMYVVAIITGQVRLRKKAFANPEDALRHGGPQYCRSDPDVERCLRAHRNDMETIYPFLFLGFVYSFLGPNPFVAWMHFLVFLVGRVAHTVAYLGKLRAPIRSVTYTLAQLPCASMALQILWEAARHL

SMILES | IC50 (mPGES-1 [1]; [3]) [nM] | IC50 (mPGES-1 [2]; [4]) [nM] | IC50 (mPGES-1 [1]; Table C comparison of selected benzimidazoles, read-out: Cell IC50) [nM] | IC50 (mPGES-1 [2]; Table C comparison of selected benzimidazoles, read-out: Enzym IC50) [nM]
Cn1c(Nc2c(Cl)ccc(CNC(=O)C(C)(C)C)c2Cl)nc2cc(C(=O)Nc3ccc4c(c3)CCC4)c(OCC(F)F)cc21 [Example 59] | < 1 | 4 |  | 
Cn1c(Nc2c(Cl)ccc(CNC(=O)C(C)(C)C)c2Cl)nc2cc(C(=O)Nc3cc(F)cc(Cl)c3)c(OCC(F)F)cc21 [Example 40] | < 1 | 4 |  | 
Cn1c(Nc2c(Cl)ccc(CNC(=O)C(C)(C)C)c2Cl)nc2cc(C(=O)NCCC3CC3)c(OCC(F)F)cc21 [Example 51] | < 1 | 3 |  | 
Cn1c(Nc2c(Cl)ccc(CNC(=O)C(C)(C)C)c2Cl)nc2cc(C(=O)NCC(F)(F)C(F)(F)F)c(OCC(F)F)cc21 [Example 38] | < 1 | 3 |  | 
Cc1cc(C#N)c(NC(=O)c2cc3nc(Nc4c(Cl)ccc(CNC(=O)C(C)(C)C)c4Cl)n(C)c3cc2OCC(F)F)s1 [Example 62] | 1 | 2 |  | 
Cn1c(Nc2cc(CNC(=O)C(C)(C)C)ccc2Cl)nc2cc(C(=O)N[C@H]3CC[C@H](C(F)(F)F)CC3)c(OCC(F)F)cc21 [[drawing 47] of PCT/EP2010/052799, reference compound] |  |  | 17 | 3
Cn1c(Nc2c(Cl)ccc(CNC(=O)C(C)(C)C)c2Cl)nc2cc(C(=O)Nc3ccc(C(F)(F)F)nc3)c(OCC(F)F)cc21 [Example 47] | < 1 | 3 |  | 
Cn1c(Nc2c(Cl)ccc(CNC(=O)OC(C)(C)C)c2Cl)nc2cc(C(=O)Nc3ccc(F)c(Cl)c3)c(OCC(F)F)cc21 [Example 15] | 11 | 3 |  | 
Cn1c(Nc2c(Cl)ccc(CNC(=O)C(C)(C)C)c2Cl)nc2cc(C(=O)NCCC(F)(F)F)c(OCC(F)F)cc21 [Example 48] | 1 | 3 |  | 
COCCOc1cc2c(cc1C(=O)Nc1ccc(F)c(Cl)c1)nc(Nc1c(Cl)ccc(CNC(=O)C(C)(C)C)c1Cl)n2C [Example 178] | < 1 | 1 |  | 
Cn1c(Nc2c(Cl)ccc(CNC(=O)C(C)(C)C)c2Cl)nc2cc(C(=O)Nc3nc(C(F)(F)F)cs3)c(F)cc21 [Example 70] | 16 | 4 |  | 
Cn1c(Nc2c(Cl)ccc(CNC(=O)C(C)(C)C)c2F)nc2cc(C(=O)Nc3ccc(Br)cc3)c(OCC(F)F)cc21 [Example 8] | < 1 | 3 |  | 
Cn1c(Nc2c(Cl)ccc(CNC(=O)C(C)(C)C)c2Cl)nc2cc(C(=O)NCc3ncccc3C(F)(F)F)c(OCC(F)F)cc21 [Example 42] | < 1 | 4 |  | 
Cn1c(Nc2c(F)ccc(CNC(=O)C(C)(C)C)c2F)nc2cc(C(=O)Nc3ccc(F)c(Cl)c3)c(OCC(F)F)cc21 [Example 26] | 11 | 2 |  | 
Cn1c(Nc2c(Cl)ccc(CNC(=O)C(C)(C)C)c2Cl)nc2cc(C(=O)N[C@H]3CC[C@H](C(F)(F)F)CC3)c(F)cc21 [Example 3, N-(trans-4-Trifluoromethyl-cyclohex-1-yl)-2-{2,6-dichloro-3-[(2,2-dimethyl-propionylamino)-methyl]-phenylamino}-6-fluoro-1-methyl-1H-benzimidazole-5-carboxylic acid amide] | 1 | 4 |  | 
Cn1c(Nc2c(Cl)ccc(CNC(=O)C(C)(C)C)c2Cl)nc2cc(C(=O)NCC3CC3(Cl)Cl)c(OCC(F)F)cc21 (stereo not shown) [Example 44] | 1 | 3 |  | 

SMILES | IC50 (mPGES-1 [1]; [3]) [nM] | IC50 (mPGES-1 [2]; [4]) [nM] | IC50 (mPGES-1 [1]; Table C comparison of selected benzimidazoles, read-out: Cell IC50) [nM] | IC50 (mPGES-1 [2]; Table C comparison of selected benzimidazoles, read-out: Enzym IC50) [nM]
Cn1c(Nc2c(Cl)ccc(CNC(=O)C(C)(C)C)c2Cl)nc2cc(C(=O)Nc3ncc(Cl)s3)c(OCC(F)F)cc21 [Example 41] | 1 | 4 |  | 
Cn1c(Nc2c(Cl)ccc(CNC(=O)C(C)(C)C)c2Cl)nc2cc(C(=O)NC[C@@H]3CCCO3)c(OCC(F)F)cc21 [Example 37] | 9 | 5 |  | 
Cn1c(Nc2c(Cl)ccc(CNC(=O)C(C)(C)C)c2Cl)nc2cc(C(=O)NCC3CCC3)c(OCC(F)F)cc21 [Example 46] | 1 | 3 |  | 
Cn1c(Nc2c(Cl)ccc(CNC(=O)C(C)(C)C)c2Cl)nc2cc(C(=O)Nc3nc4ccc(Cl)cc4s3)c(OCC(F)F)cc21 [Example 34] | 1 | 4 |  | 
Cn1c(Nc2c(Cl)ccc(CNC(=O)OC(C)(C)C)c2Cl)nc2cc(C(=O)N[C@H]3CC[C@H](C(F)(F)F)CC3)c(OCC(F)F)cc21 [Example 13, N-(trans-4-Trifluoromethyl-cyclohex-1-yl)-2-{2,6-dichloro-3-[(tert-butoxy-carbonylamino)-methyl]-phenylamino}-6-(2,2-difluoroethoxy)-1-methyl-1H-benzimidazole-5-carboxylic acid amide] | 28 | 3 |  | 
Cc1ccc(CNC(=O)C(C)(C)C)c(C)c1Nc1nc2cc(C(=O)N[C@H]3CC[C@H](C(F)(F)F)CC3)c(OCC(F)F)cc2n1C [Example 14, N-(trans-4-Trifluoromethyl-cyclohex-1-yl)-2-{2,6-dimethyl-3-[(2,2-dimethyl-propionylamino)-methyl]-phenylamino}-6-(2,2-difluoroethoxy)-1-methyl-1H-benzimidazole-5-carboxylic acid amide] | 5 | 1 |  | 
Cn1c(Nc2c(Cl)ccc(CNC(=O)C(C)(C)C)c2Cl)nc2cc(C(=O)Nc3ccc(C(F)(F)F)cn3)c(OCC(F)F)cc21 [Example 61] | < 1 | 4 |  | 
Cn1c(Nc2c(Cl)ccc(CNC(=O)C(C)(C)C)c2Cl)nc2cc(C(=O)NCC(F)F)c(OCC(F)F)cc21 [Example 43] | 4 | 4 |  | 
Cn1c(Nc2c(Cl)ccc(CNC(=O)C(C)(C)C)c2F)nc2cc(C(=O)Nc3ccc(F)c(Cl)c3)c(OCC(F)F)cc21 [Example 75, N-(3-Chloro-4-fluoro-phenyl)-2-{6-chloro-2-fluoro-3-[(2,2-dimethyl-propionylamino)-methyl]-phenylamino}-6-(2,2-difluoroethoxy)-1-methyl-1H-benzimidazole-5-carboxylic acid amide] | < 1 | 2 |  | 
Cn1c(Nc2c(F)ccc(CNC(=O)C(C)(C)C)c2F)nc2cc(C(=O)NCC(F)(F)F)c(OCC(F)F)cc21 [Example 27] | 124 | 4 |  | 
Cn1c(Nc2c(Cl)ccc(CNC(=O)N3CC(F)(F)C3)c2Cl)nc2cc(C(=O)N[C@H]3CC[C@H](C(F)(F)F)CC3)c(OCC(F)F)cc21 [Example 80, N-(trans-4-Trifluoromethyl-cyclohex-1-yl)-2-{2,6-dichloro-3-[(3,3-difluoro-azetidine-1-carbonylamino)-methyl]-phenylamino}-6-(2,2-difluoroethoxy)-1-methyl-1H-benzimidazole-5-carboxylic acid amide] | 7 | 1 |  | 
Cn1c(Nc2c(Cl)ccc(CNC(=O)C(C)(C)C)c2Cl)nc2cc(C(=O)NC3CCC3)c(OCC(F)F)cc21 [Example 32] | 1 | 3 |  | 
CC(C)(C)C(=O)NCc1ccc(Cl)c(Nc2nc3cc(C(=O)N[C@H]4CC[C@H](C(F)(F)F)CC4)c(F)c(F)c3[nH]2)c1Cl [Example 180] | 93 | 2 |  | 
Cn1c(Nc2c(Cl)ccc(CNC(=O)C(C)(C)C)c2Cl)nc2cc(C(=O)NC3CC4CCC3C4)c(OCC(F)F)cc21 (stereo not shown) [Example 55] | < 1 | 4 |  | 
Cn1c(Nc2c(F)ccc(CNC(=O)C(C)(C)C)c2F)nc2cc(C(=O)Nc3cc(F)cc(Cl)c3)c(OCC(F)F)cc21 [Example 69] | 3 | 2 |  | 
Cn1c(Nc2c(Cl)ccc(CNC(=O)C(C)(C)C)c2Cl)nc2cc(C(=O)NCCc3ccccc3)c(OCC(F)F)cc21 [Example 57] | < 1 | 4 |  | 
